The source made the active and inactive calls. No rule for the calls is given here.

A short description of the series: Cytotoxicity activity against human HepG2 cells assessed by CellTiter-Glo luminescent cell viability assay. On the set-up: assay stage confirmatory assay, source tissue liver. In kind it is toxicity, cell-based. The following applies: HepG2 cells, read-out: IC50 relative.

In the case of `CCN1CCN(CCCNC(=O)c2cc3c(=O)n(C)c4ccccc4c3s2)CC1`, the CC50 was 4.1 µM (active).

`COc1ccc(C)cc1S(=O)(=O)N1CCCC(C(=O)N2CCN(c3ccccc3F)CC2)C1` (configuration not stated): the CC50 is 9.9 µM (inactive).

With `Cc1ccc(S(=O)(=O)c2cn(C)c3cc(N4CCN(C)CC4)c(F)cc3c2=O)cc1`, the CC50 is 15.1 µM (inactive).

Turning to `Cc1c(Cl)sn(-c2ccc(Cl)cc2)c1=O`, the CC50 was 4.4 µM (active).

As for `O=C(Nc1ccc(Cl)cc1)N1CCCN(Cc2ccc(F)cc2)C1`, the CC50 is 6.7 µM (active).

`COc1ccccc1C(=O)Nc1ccccn1`: the CC50 is 8.4 µM (inactive).

For `CCn1c(=O)n(CC)c2cc(N3CCCC3)c(NC(=O)c3cccc(OC)c3)cc21`, the CC50 was 20.2 µM (inactive).

Turning to `Cc1n[nH]c(C)c1S(=O)(=O)N1CCCC(C(=O)Nc2ccc(Br)cc2)C1` (configuration not stated), the CC50 is 26.3 µM (inactive).

On to `COc1cc(-c2noc(-c3ccc4c(c3)OCO4)n2)cc(OC)c1OC`, for which the CC50 was 0.1 µM (active).

As for `Clc1nss/c1=N\c1ccc(Br)cc1`, the CC50 was 24.2 µM (inactive).

In the case of `Cc1ccc(/N=c2\ssnc2Cl)nc1`, the CC50 was 16.4 µM (inactive).

With `CCCN1C(=O)COc2cc(-c3noc(C(=O)NC4CCN(Cc5ccccc5)CC4)n3)ccc21`, the CC50 is 15.2 µM (inactive).

As to `Cc1ccc(C)c(N2CCN(CCCNC(=O)C3CCN(c4ccc5nnc(C)n5n4)CC3)CC2)c1`, the CC50 is 8.7 µM (active).

As for `COc1ccc(-c2nc(NCCN3CCN(C)CC3)c3ccccc3n2)cc1`, the CC50 was 7.9 µM (active).

For `Cc1cc(C)cc(NC(=O)CC2CCCN(c3cn[nH]c(=O)c3)C2)c1` (configuration not stated), the CC50 was 2.4 µM (active).

For `CCOc1ccc(C(=O)Nc2nc3ccc(S(=O)(=O)N(C)C)cc3s2)cc1`, the CC50 was 19.3 µM (inactive).

With `CCOc1ccccc1C(=O)N1CCN(c2ccccc2OCC)CC1`, the CC50 is 15.1 µM (inactive).

Regarding `COc1ccccc1OCCOCCOCCOc1ccccc1OC`, the CC50 is 12.6 µM (inactive).

As for `CCS(=O)(=O)c1ncc(Cl)c(C(=O)Nc2ccccc2Cl)n1`, the CC50 is 2.5 µM (active).

In the case of `O=C(c1ccc(Cl)cc1)N(CCCc1ccccc1)CCS(=O)(=O)N1CCNCC1`, the CC50 is 10.2 µM (active).

In the case of `c1ccc(CN2C[C@H]3CCNC[C@H]32)cc1`, the CC50 is 15.9 µM (inactive).

`CC(C)N1CCN(Cc2nc(Cn3ccn4nc(-c5ccccc5)cc4c3=O)no2)CC1`: the CC50 is 8.2 µM (active).

In the case of `CC(C)S(=O)(=O)N1CC(Oc2ccc(-c3noc(-c4ccncc4)n3)cc2)C1`, the CC50 was 19.7 µM (inactive).

On to `O=C(c1ccoc1)N1CCCN(Cc2ccc3c(c2)OCO3)c2ccccc21`, for which the CC50 was 20.4 µM (inactive).

As for `OCCOCCNCc1ccc(-c2cc(Cl)cc(Cl)c2)o1`, the CC50 was 11.7 µM (active).

For the compound `CC1(C)C2CC=C(CN(CCN3CCNCC3)C(=O)c3ccccc3Cl)C1C2` (configuration not stated), the CC50 is 14.3 µM (inactive).

`CCCc1nnsc1C(=O)Nc1nc2ccccc2[nH]1`: the CC50 was 19 µM (inactive).

Take `O=C(Nc1nccs1)C1=C(c2ccccc2)S(=O)(=O)CCO1`: the CC50 was 7.7 µM (active).

In the case of `CCN(CC)S(=O)(=O)c1ccc(C(=O)Nc2cc(C)nn2-c2nc(C)cc(=O)[nH]2)cc1`, the CC50 was 6.5 µM (inactive).

As for `O=C(Nc1cccnc1)c1ccc(Cn2nc(N3CCN(c4ccccc4)CC3)ccc2=O)o1`, the CC50 is 5.7 µM (active).

For `NCC1CN(CC2CC2)CC12CCCCC2` (configuration not stated), the CC50 is 13.1 µM (inactive).

With `CC(C)N1CC(CN)C2(CCCCC2)C1` (configuration not stated), the CC50 was 11.6 µM (active).

With `Cc1ccc(N2N=C(C(=O)N3CCCC3)S(=O)(=O)c3cccnc32)cc1`, the CC50 is 3.3 µM (active).

On to `CCN(CC)c1cc(C)nc(Nc2ccc(NC(=O)C3CCCO3)cc2)n1` (configuration not stated), for which the CC50 is 11.3 µM (active).

Turning to `CC(C)COCC(O)CN1CCCN(c2ccc(NC(=O)COc3ccc(Cl)cc3)cn2)CC1` (configuration not stated), the CC50 is 5.8 µM (active).

Turning to `CCC(C)NC(=O)COc1ccc(-c2nc(C(C)C)no2)cc1` (configuration not stated), the CC50 is 4.2 µM (active).

For `COc1cc2c(cc1C(=O)Nc1ccccc1F)OCCCO2`, the CC50 was 13.8 µM (inactive).

Take `O=c1cc(CSc2ccccc2)nc2sc(-c3ccco3)nn12`: the CC50 is 3.2 µM (active).

Consider `CCN(CC)CCCNC(=O)C1CCCN(c2ncc(-c3ccc(F)cc3)cn2)C1` (configuration not stated), for which the CC50 was 10.9 µM (active).

Regarding `Cc1[nH]c(C(=O)Nc2ccc(C#N)cc2)c(C)c1S(=O)(=O)N1CCCC1`, the CC50 is 17.9 µM (inactive).

For the compound `COc1cccc(C(=O)/N=c2\sc(C)c(C)n2Cc2ccc(C(=O)NCCN(C)C)o2)c1`, the CC50 was 12.2 µM (active).

For `O=C(NCCN1CCCC1)C1CCN(c2ncccc2-c2nc(-c3ccccc3)no2)CC1`, the CC50 is 7.9 µM (active).

For the compound `CC(C)Oc1ccc(C(=O)Nc2ccc3c(c2)N(S(C)(=O)=O)CCC3)cc1`, the CC50 was 2.7 µM (active).

As to `CC(C)c1ccccc1OCC(=O)Nc1cccnc1`, the CC50 was 4 µM (active).

As for `CCOc1ccc(S(=O)(=O)N2CC(C)CC(C)C2)cc1C` (configuration not stated), the CC50 was 17 µM (inactive).

In the case of `CCCN(CCC)CCNC(=O)Cn1cnc2onc(-c3ccc(Cl)cc3)c2c1=O`, the CC50 was 5.9 µM (active).

Consider `Cc1ccc(N2N=C(C(=O)NCCN3CCOCC3)S(=O)(=O)c3cc(F)ccc32)cc1`, for which the CC50 was 11.2 µM (active).

Consider `COc1ccc(OC)c([N+]2=C3SCCCN3C(O)(c3ccc(C)cc3)C2)c1` (configuration not stated), for which the CC50 is 11.6 µM (active).

Regarding `O=C(CCC1CCCN(c2cc(NC3CC3)ncn2)C1)N1CCN(c2ccc(F)cc2)CC1` (configuration not stated), the CC50 is 9.1 µM (active).

Turning to `Nc1nc(Nc2ccccc2F)nc2ccccc12`, the CC50 is 8.4 µM (active).

Consider `COc1ccc2c(c1)cc(C(=O)N[C@@H](C)C(=O)N1CCN(Cc3ccccc3)CC1)n2C`, for which the CC50 was 13.1 µM (inactive).

For `O=S1(=O)C[C@H](NCCc2c[nH]c3ccccc23)[C@@H](S(=O)(=O)c2cccs2)C1`, the CC50 is 11.6 µM (inactive).

For the compound `c1ccc(-c2cnn3c(-c4ccco4)ccnc23)cc1`, the CC50 is 0.5 µM (active).

Take `CCCCc1cc(=O)oc2c(C)c(OCC(=O)NCCN(C)C)ccc12`: the CC50 is 13 µM (inactive).

As for `Cc1ccc(NC(=O)c2nc(S(C)(=O)=O)ncc2Cl)cc1`, the CC50 is 4.1 µM (active).

Take `Cc1c(O)ccc2c(CN3CCN(c4ccc(F)cc4)CC3)cc(=O)oc12`: the CC50 was 24.8 µM (inactive).

For the compound `CC(C)CN1CCN(Cc2nc(Cn3ccn4nc(-c5ccccc5)cc4c3=O)no2)CC1`, the CC50 was 13.6 µM (active).

As to `CC1=NN(C(=O)c2ccc(N(C)C)cc2)C(O)(C(F)(F)F)C1` (configuration not stated), the CC50 is 25 µM (inactive).

Take `CNS(=O)(=O)c1cc(-c2cc(C(=O)Nc3cccc(OC)c3)n[nH]2)ccc1OC`: the CC50 is 9.2 µM (active).

Regarding `CCN1CCN(c2ncc(C(=O)Nc3ccc(Br)cc3)c(C)n2)CC1`, the CC50 was 13.8 µM (inactive).

In the case of `O=C(CCn1sc2ccccc2c1=O)NCCc1c[nH]c2ccccc12`, the CC50 was 5 µM (active).

As for `CCn1cc(CN2C[C@@H]3C[C@H](NC(C)=O)CN3C(=O)[C@@H]2CC(C)C)c2ccccc21`, the CC50 is 13.6 µM (inactive).

As for `CC1CCN(S(=O)(=O)c2ccc(-c3nc(C#N)c(NCCCN(C)C)o3)cc2)CC1`, the CC50 is 5.8 µM (active).

Turning to `O=C(Nc1nnc2ccccn12)c1ccc(F)c(Cl)c1`, the CC50 is 2.7 µM (active).

On to `CC(=O)N1CCCSc2ccc(S(=O)(=O)NCCCc3ccccc3)cc21`, for which the CC50 was 12.2 µM (active).

Take `CCN(CC)S(=O)(=O)c1cccc(C(=O)Nc2cccc(F)c2)c1`: the CC50 was 10.4 µM (active).

In the case of `Cc1cccc(-c2noc(-c3ccc(N4CCN(C)CC4)nc3)n2)c1`, the CC50 was 5 µM (active).

With `CC(=O)C1=C(c2ccc(Br)cc2)N(C(C)=O)n2c(C)nnc2S1`, the CC50 is 10.9 µM (active).

With `O=C(C1CCCC1)N1CC(Oc2ccc(-c3noc(C4CCOCC4)n3)cc2)C1`, the CC50 is 3.2 µM (active).

`CCOCC(=O)N1CCN(c2nc3c(s2)c(C)nn3-c2ccc(OC)cc2)CC1`: the CC50 is 11.5 µM (active).

Consider `CC(C(=O)NCCN(C)C)C1CCN(C(=O)c2cc3cc(Cl)ccc3[nH]2)CC1` (configuration not stated), for which the CC50 was 6.3 µM (active).

Take `Cc1noc2ncnc(N3CCC(C(=O)N4CCc5ccccc54)CC3)c12`: the CC50 was 10.9 µM (active).

With `COc1cccc(S(=O)(=O)N2CCC3(CC2)CC(CCOc2ccncc2)CCO3)c1` (configuration not stated), the CC50 was 13.2 µM (active).

Regarding `CN(CC(=O)NCCN1CCC(Cc2ccccc2)CC1)S(=O)(=O)c1cccc2nsnc12`, the CC50 was 9.1 µM (active).

For `COc1ccc(NS(=O)(=O)c2ccc(-c3cnc(C)o3)cc2)cc1OC`, the CC50 was 3.6 µM (active).

For `CCCCOc1ccc(-c2cc3c4nnc(CCC(=O)N5CCN(CC)CC5)n4ccn3n2)cc1`, the CC50 is 4.2 µM (active).

As for `O=C(CCCCCn1sc2ccccc2c1=O)Nc1ccc2c(c1)OCO2`, the CC50 is 3.5 µM (active).

Regarding `COc1ccc(NC(=O)C2=C(c3ccccc3)S(=O)(=O)CCO2)c(OC)c1`, the CC50 was 9.7 µM (active).

Turning to `CN(C)CCNC(=O)c1ccc2c(c1)n(Cc1cccc(F)c1)c(=O)c1ccnn12`, the CC50 was 12.7 µM (active).

In the case of `COc1ccc(C(=O)N[C@@H]2CN(Cc3ccccc3)C[C@H]2CN(C)C)cc1F`, the CC50 was 12.1 µM (active).

Take `CCCS(=O)(=O)Nc1ccc(Nc2nc(C)cc(N(CC)CC)n2)cc1`: the CC50 was 6.4 µM (active).

As for `CCOc1ccccc1NC(=O)c1cnc2sc(N3CCOCC3)nn2c1=O`, the CC50 was 15.6 µM (inactive).

Regarding `CCN1CCN(C(=O)C2CCN(c3nn4cc(-c5ccc(C)cc5)nc4s3)CC2)CC1`, the CC50 was 9.5 µM (active).

For `Cc1nc2n(c(=O)c1C)CN(CCCO)CN2c1ccc(Cl)cc1Cl`, the CC50 was 50 µM (inactive).

As to `Clc1ccc(OCC2CCCNC2)c2ccccc12` (configuration not stated), the CC50 was 2 µM (active).

For `COc1ccc(-c2ccc(CNCCCN3CCOCC3)o2)cc1Cl`, the CC50 was 12.7 µM (inactive).

On to `COc1cc(/N=c2\ssnc2Cl)cc(OC)c1OC`, for which the CC50 is 8.1 µM (active).

Values taken from ChEMBL document CHEMBL5303711, “ECBD screening data for assay EOS300108” (2023).
